Key:
[1] = Plasma clearance in rat at 5 mg/kg, iv; assay type: ADME, organism-based; set-up: dose 5 mg/kg, route intravenous
[2] = (§1) Oral bioavailability in rat at 3 mg/kg; assay type: ADME, organism-based; conditions: in vivo
[3] = Oral bioavailability in rat at 3 mg/kg pre-dosed with 50 mg/kg, po of Pgp and Bcrp inhibitor elacridar 15 mins before drug challenge; assay type: ADME, organism-based; conditions: in vivo
[4] = AUC (0 to 24 hrs) in rat at 3 mg/kg, po pre-dosed with 50 mg/kg, po of Pgp and Bcrp inhibitor elacridar 15 mins before drug challenge; assay type: ADME, organism-based; set-up: dose 3 mg/kg, time < 24 hr, route oral; conditions: plasma
rat Mdr1a = test: Apparent permeability across pig LLC-PK1 cells transfected with rat Mdr1a; assay type: ADME, cell-based, Sus scrofa
[5] = Plasma clearance in rat at 0.5 mg/kg, iv; assay type: ADME, organism-based; set-up: dose 0.5 mg/kg, route intravenous
[6] = (§2) Oral bioavailability in rat at 30 mg/kg; assay type: ADME, organism-based; conditions: in vivo
[7] = as §1; assay type: ADME, organism-based; conditions: in vivo; remark: listed apart in the source
[8] = Oral bioavailability in rat at 10 mg/kg; assay type: ADME, organism-based; conditions: in vivo
[9] = Drug uptake in FVB mouse expressing wild type MDR1a brain at 30 mg/kg, po after 24 hrs; assay type: ADME, organism-based; set-up: dose 30 mg/kg, route oral; conditions: read-out: Drug uptake
[10] = Oral bioavailability in FVB mouse expressing wild type MDR1a at 30 mg/kg; assay type: ADME, organism-based; conditions: in vivo
[11] = Blood clearance in MDR1a-deficient FVB mouse at 30 mg/kg, po and 5 mg/kg, iv; assay type: ADME, organism-based; conditions: whole blood
Brain [12] = test: Ratio of drug uptake in MDR1a-deficient FVB mouse brain to drug uptake in FVB mouse expressing wild type MDR1a brain at 5 mg/kg, iv after 24 hrs; assay type: ADME, organism-based; set-up: dose 5 mg/kg, route intravenous; conditions: in vivo
Mus musculus [13] = test: Ratio of blood clearance in MDR1a-deficient FVB mouse to blood clearance in FVB mouse expressing wild type MDR1a at 30 mg/kg, po and 5 mg/kg, iv; assay type: ADME, organism-based; conditions: in vivo
[14] = AUC (0 to 24 hrs) in FVB mouse expressing wild type MDR1a at 30 mg/kg, po; assay type: ADME, organism-based; set-up: time < 24 hr, dose 30 mg/kg, route oral; conditions: plasma
[15] = Drug uptake in MDR1a-deficient FVB mouse brain at 5 mg/kg, iv after 24 hrs; assay type: ADME, organism-based; set-up: dose 5 mg/kg, route intravenous; conditions: read-out: Drug uptake
Brain [16] = test: Ratio of drug uptake in MDR1a-deficient FVB mouse brain to drug uptake in FVB mouse expressing wild type MDR1a brain at 30 mg/kg, po after 24 hrs; assay type: ADME, organism-based; set-up: dose 30 mg/kg, route oral; conditions: in vivo
[17] = Blood clearance in FVB mouse expressing wild type MDR1a at 30 mg/kg, po and 5 mg/kg, iv; assay type: ADME, organism-based; conditions: whole blood
[18] = Drug uptake in MDR1a-deficient FVB mouse brain at 30 mg/kg, po after 24 hrs; assay type: ADME, organism-based; set-up: dose 30 mg/kg, route oral; conditions: read-out: Drug uptake
[19] = Drug uptake in FVB mouse expressing wild type MDR1a brain at 5 mg/kg, iv after 24 hrs; assay type: ADME, organism-based; set-up: dose 5 mg/kg, route intravenous; conditions: read-out: Drug uptake
Mus musculus [20] = test: Volume of distribution at steady state in FVB mouse expressing wild type MDR1a at 30 mg/kg, po and 5 mg/kg, iv; assay type: ADME, organism-based; conditions: in vivo
Mus musculus [21] = test: Ratio of oral bioavailability in MDR1a-deficient FVB mouse to oral bioavailability in FVB mouse expressing wild type MDR1a at 30 mg/kg; assay type: ADME, organism-based; conditions: in vivo
[22] = Oral bioavailability in MDR1a-deficient FVB mouse at 30 mg/kg; assay type: ADME, organism-based; conditions: in vivo
[23] = AUC (0 to 24 hrs) in MDR1a-deficient FVB mouse at 30 mg/kg, po; assay type: ADME, organism-based; set-up: time < 24 hr, dose 30 mg/kg, route oral; conditions: plasma
Mus musculus [24] = test: Volume of distribution at steady state in MDR1a-deficient FVB mouse at 30 mg/kg, po and 5 mg/kg, iv; assay type: ADME, organism-based; conditions: in vivo
Mus musculus [25] = test: Ratio of AUC (0 to 24 hrs) in MDR1a-deficient FVB mouse to AUC (0 to 24 hrs) in FVB mouse expressing wild type MDR1a at 30 mg/kg, po; assay type: ADME, organism-based; set-up: dose 30 mg/kg, route oral; conditions: in vivo
Mus musculus [26] = test: Ratio of volume of distribution at steady state in MDR1a-deficient FVB mouse to volume of distribution at steady state in FVB mouse expressing wild type MDR1a at 30 mg/kg, po and 5 mg/kg, iv; assay type: ADME, organism-based; conditions: in vivo
[27] = Apparent Passive permeability across pig LLC-PK1 cells; assay type: ADME, cell-based, Sus scrofa
[28] = Lipophilicity, Log D of the compound at pH 7 by RP-HPLC analysis; assay type: physicochemical; conditions: buffer
[29] = Plasma clearance in dog at 3 mg/kg, po and 1 mg/kg, iv; assay type: ADME, organism-based, Canis lupus familiaris
[30] = Oral bioavailability in dog at 3 mg/kg; assay type: ADME, organism-based, Canis lupus familiaris; conditions: in vivo
[31] = Plasma clearance in rat at 30 mg/kg, po and 5 mg/kg, iv; assay type: ADME, organism-based
[32] = as §2; assay type: ADME, organism-based; conditions: in vivo; remark: listed apart in the source
[33] = Drug recovery in permanently bile-duct cannulated rat feces supplimented with artificial bile at 20 mg/kg, po after 48 hrs by HPLC-MS/MS analysis; assay type: ADME, organism-based; set-up: dose 20 mg/kg, route oral; conditions: faeces, read-out: Drug uptake
[34] = Drug recovery in permanently bile-duct cannulated rat feces supplimented with artificial bile at 5 mg/kg, iv after 48 hrs by HPLC-MS/MS analysis; assay type: ADME, organism-based; set-up: dose 5 mg/kg, route intravenous; conditions: faeces, read-out: Drug uptake
[35] = Drug recovery in permanently bile-duct cannulated rat supplimented with artificial bile at 5 mg/kg, iv after 48 hrs by HPLC-MS/MS analysis; assay type: ADME, organism-based; set-up: dose 5 mg/kg, route intravenous; conditions: in vivo, read-out: Drug uptake
[36] = Drug recovery in permanently bile-duct cannulated rat bile supplimented with artificial bile at 20 mg/kg, po after 48 hrs by HPLC-MS/MS analysis; assay type: ADME, organism-based; set-up: dose 20 mg/kg, route oral; conditions: read-out: Drug uptake
[37] = Drug recovery in permanently bile-duct cannulated rat supplimented with artificial bile at 20 mg/kg, po after 48 hrs by HPLC-MS/MS analysis; assay type: ADME, organism-based; set-up: dose 20 mg/kg, route oral; conditions: in vivo, read-out: Drug uptake
[38] = Drug recovery in permanently bile-duct cannulated rat bile supplimented with artificial bile at 5 mg/kg, iv after 48 hrs by HPLC-MS/MS analysis; assay type: ADME, organism-based; set-up: dose 5 mg/kg, route intravenous; conditions: read-out: Drug uptake
[39] = Drug recovery in permanently bile-duct cannulated rat urine supplimented with artificial bile at 20 mg/kg, po after 48 hrs by HPLC-MS/MS analysis; assay type: ADME, organism-based; set-up: dose 20 mg/kg, route oral; conditions: read-out: Drug uptake
[40] = Drug recovery in permanently bile-duct cannulated rat urine supplimented with artificial bile at 5 mg/kg, iv after 48 hrs by HPLC-MS/MS analysis; assay type: ADME, organism-based; set-up: dose 5 mg/kg, route intravenous; conditions: read-out: Drug uptake
[41] = Oral bioavailability in rat at 0.3 mg/kg; assay type: ADME, organism-based; conditions: in vivo
LLC-PK1 = test: Ratio of permeability from basolateral to apical side to apical to basolateral side of pig LLC-PK1 cells transfected with rat Mdr1a; assay type: ADME, cell-based, Sus scrofa
[42] = Oral bioavailability in rat at 0.3 mg/kg pre-dosed with 50 mg/kg, po of Pgp and Bcrp inhibitor elacridar 15 mins before drug challenge; assay type: ADME, organism-based; conditions: in vivo
[43] = Cmax in rat plasma at 3 mg/kg, po; assay type: ADME, organism-based; set-up: dose 3 mg/kg, route oral

## COCCCc1cc(Cl)c(Cl)c(CN(C(=O)[C@H]2CNCC[C@@H]2c2ccn(C)c(=O)c2)C2CC2)c1
[1]
  clearance: 67 mL/min/kg
[2]
  bioavailability: 2%
[3]
  bioavailability: 20%
[4]
  AUC(0-t) at 24 h: 0.033 µM·h
Rat Mdr1a
  Papp: 3 ×10⁻⁶ cm/s
[5]
  clearance: 57 mL/min/kg
[6]
  bioavailability: 24%
[7]
  bioavailability: 2%
[8]
  bioavailability: 21%

## COCCCc1cc(CN(C(=O)[C@H]2CNCC[C@@H]2c2ccn(C)c(=O)c2)C2CC2)cc(Br)c1C
[1]
  clearance: 75 mL/min/kg
[2]
  bioavailability: 3%
[9]
  concentration at 24 h: 8 nM
[3]
  bioavailability: 31%
[10]
  bioavailability: 7%
[11]
  clearance: 72 mL/min/kg
[4]
  AUC(0-t) at 24 h: 0.044 µM·h
Brain [12]
  fold change (FC): 32
Rat Mdr1a
  Papp: 2 ×10⁻⁶ cm/s
Mus musculus [13]
  fold change (FC): 0.9
[14]
  AUC(0-t) at 24 h: 0.8 µM·h
[5]
  clearance: 125 mL/min/kg
[15]
  concentration at 24 h: 239 nM
[6]
  bioavailability: 17%
Brain [16]
  fold change (FC): 63
[17]
  clearance: 82 mL/min/kg
[18]
  concentration at 24 h: 504 nM
[19]
  concentration at 24 h: 7.3 nM
Mus musculus [20]
  Vdss: 3.7 L/kg
Mus musculus [21]
  fold change (FC): 4
[22]
  bioavailability: 29%
[23]
  AUC(0-t) at 24 h: 4 µM·h
Mus musculus [24]
  Vdss: 4.7 L/kg
Mus musculus [25]
  fold change (FC): 5
Mus musculus [26]
  fold change (FC): 1.3
[7]
  bioavailability: 6%
[8]
  bioavailability: 7%

## COCCc1ccc(Cl)c(CN(C(=O)[C@H]2CNCC[C@]2(O)c2ccc(F)c(F)c2)C2CC2)c1
[27]
  Papp: 11 ×10⁻⁶ cm/s
[28]
  logD: 3.1
[7]
  bioavailability: 16%

## COCCCc1cc(CN(C(=O)[C@H]2CNCC[C@@H]2c2ccc(OCCOc3c(Cl)cc(C)cc3Cl)cc2)C2CC2)cc(OCCOC)c1.Cl
[29]
  clearance: 26 mL/min/kg
[30]
  bioavailability: 44%
[31]
  clearance: 11 mL/min/kg
[32]
  bioavailability: 27%

## COCCCc1cc(CN(C(=O)[C@H]2CNCC[C@@H]2c2ccn(C)c(=O)c2)C2CC2)cc(OCCOC)c1.Cl
[1]
  clearance: 31 mL/min/kg
[33]
  dose excreted at 48 h: 73%
[29]
  clearance: 9.2 mL/min/kg
Rat Mdr1a
  Papp: < 3 ×10⁻⁶ cm/s
[30]
  bioavailability: 1%
[5]
  clearance: 43 mL/min/kg
[34]
  dose excreted at 48 h: 10%
[6]
  bioavailability: 3%
[35]
  dose excreted at 48 h: 45%
[27]
  Papp: 2 ×10⁻⁶ cm/s
[36]
  dose excreted at 48 h: 0.1%
[28]
  logD: 0.9
[37]
  dose excreted at 48 h: 75%
[38]
  dose excreted at 48 h: 25%
[31]
  clearance: 31 mL/min/kg
[39]
  dose excreted at 48 h: 2%
[32]
  bioavailability: 3%
[7]
  bioavailability: 0.5%
[40]
  dose excreted at 48 h: 10%

## COCCOc1cc(CCOC)cc(CN(C(=O)[C@H]2CNCC[C@]2(O)c2ccc(F)c(F)c2)C2CC2)c1
[2]
  bioavailability: 29%
[3]
  bioavailability: 24%
[41]
  bioavailability: 17%
Rat Mdr1a
  Papp: 22 ×10⁻⁶ cm/s
LLC-PK1
  Ratio: 19
[27]
  Papp: 22 ×10⁻⁶ cm/s
[28]
  logD: 2.6
[42]
  bioavailability: 14%
[7]
  bioavailability: 29%

## COCCc1ccc(Cl)c(CN(C(=O)[C@H]2CNCC[C@@H]2c2ccn(C)c(=O)c2)C2CC2)c1
[27]
  Papp: 1 ×10⁻⁶ cm/s
[28]
  logD: 1
[7]
  bioavailability: 1%

## COc1cc2c(cc1OC)CN(CCc1ccc(NC(=O)c3cccc4c(=O)c5cccc(OC)c5[nH]c34)cc1)CC2 [ELACRIDAR]
[43]
  Cmax: 200 nM

From ChEMBL document CHEMBL1821601, “Impact of passive permeability and gut efflux transport on the oral bioavailability of novel series of piperidine-based renin inhibitors in rodents” (Bioorg Med Chem Lett, 2011)
